Drawing on patent US5489592A, “3,4-dihydro-4-oxo-3-(2-propenyl)-1-phthalazineacetic acids and derivatives, their preparations and medicines containing them” (Lipha, Lyonnaise Industrielle Pharmaceutique, priority 1991, dated 1996), this text covers IC50 and ED50 for six compounds.

The structures appear in SMILES notation.

Assay [1] addresses T1, aldose reductase (Rattus norvegicus, UniProt P07943).
T1 construct: The aldose reductase used is obtained from crystallins from male Wistar rats; from tissue; host or cells: eye lens of male Wistar rats, enzymatic extract
The assay can be described thus: In vitro study: inhibition of aldose reductase. Type of assay: biochemical, male Wistar rats. Conditions: rat crystallin enzyme, NADPH, L-glyceraldehyde, 340 nm; confidence interval in parentheses. The procedure: 1) In vitro study: inhibition of aldose reductase
The aldose reductase used is obtained from crystallins from male Wistar rats according to a modification of the method of S. Hayman et al. (Journal of Biological Chemistry, 240, p. 877, 1965). The enzymatic extract is diluted in a phosphate buffer in the presence of NADPH and of various concentrations of the products to be tested. The reaction is triggered by L-glyceraldehyde and the rate of reaction is measured by monitoring the disappearance of NADPH by spectrophotometry at 340 nm. The inhibition of the rate of reaction is calculated for each concentration of products and then the concentration necessary for a 50% inhibition (IC50) is evaluated by linear interpolation.

Assay [2] relates to level of sorbitol in the crystallins. Nature of the assay: In vivo study: reduction in the accumulation of sorbitol in streptozotocin-diabetic rats. Conditions: Rattus norvegicus, oral, 4, 30 and 52 h after streptozotocin (60 mg/kg i.v.), 50% reduction, confidence interval in parentheses. Also noted: species or system male Wistar rats. As for the experimental part: 2) In vivo study: reduction in the accumulation of sorbitol
Male Wistar rats, weighing 200 to 250 g, are made diabetic by intravenous injection of streptozotocin (60 mg/kg). They then receive an oral treatment of the products to be tested, in the form of a 10% suspension in gum arabic, 4 hours, 30 hours and 52 hours after injection of streptozotocin. Eighteen hours after the last oral treatment, the rats are stunned and decapitated and their crystallins are then withdrawn. After extraction, the level of sorbitol in the crystallins is measured according to the enzymatic method described by H. U. Bergmeyer (Methods of Enzymatic Analysis, edited by H. U. Bergmeyer, Academic Press, New York, 3, p. 1323, 1974).
Various doses of products are tested and the inhibitions are calculated with respect to a control batch of diabetic rats. The dose necessary for a 50% reduction in the level of sorbitol is then evaluated by linear interpolation.

The IC50 is the point on the concentration scale where inhibition reaches its midpoint. The ED50 is the dose at which the effect has come halfway, by size or by number of responders. As to `O=C(O)Cc1nn(C/C(F)=C/c2cccc(C(F)(F)F)c2)c(=O)c2ccccc12` [Example B49, (Z) -3-[2-fluoro-3-[3-(trifluoromethyl)phenyl]-2-propenyl]-3,4-dihydro-4-oxo-1-phthalazineacetic acid], in assay [1], the concentration for half-maximal inhibition (IC50) stood at 8.4 nM. For the same compound, the ED50 in assay [2] was determined as 8.2 mg/kg.

As to `O=C(O)Cc1nn(C/C=C/c2c(F)ccc(C(F)(F)F)c2F)c(=O)c2ccccc12` [Example B41, (E) -3-[3-[2,6-difluoro-3-(trifluoromethyl)phenyl]-2-propenyl]-3,4-dihydro-4-oxo-1-phthalazineacetic acid], the IC50 in assay [1] turned out to be 8.6 nM. In assay [2], the ED50 was 4.4 mg/kg.

For the compound `O=C(O)Cc1nn(C/C=C/c2c(F)c(F)cc(F)c2F)c(=O)c2ccccc12` [Example B43, (E) -3-[3-(2,3,5,6-tetrafluorophenyl)-2-propenyl]-3,4-dihydro-4-oxo-1-phthalazineacetic acid], in assay [1], the IC50 came out at 9.6 nM. Moreover, in assay [2], the ED50 turned out to be 5.8 mg/kg.

In the case of `O=C(O)Cc1nn(C/C=C/c2c(F)ccc(F)c2F)c(=O)c2ccccc12` [Example B38, (E) -3-[3-(2,3,6-trifluorophenyl)-2-propenyl]-3,4-dihydro-4-oxo-1-phthalazineacetic acid], in assay [1], the IC50 was found to be 8.9 nM. Besides, the ED50 in assay [2] came out at 4.7 mg/kg.

Turning to `O=C(O)Cc1nn(C/C=C/c2c(F)ccc(Br)c2F)c(=O)c2ccccc12` [Example B40, (E) -3-[3-(3-bromo-2,6-difluorophenyl)-2-propenyl]-3,4-dihydro-4-oxo-1-phthalazineacetic acid], the IC50 in assay [1] was 8.2 nM. Besides, the ED50 in assay [2] was found to be 6.1 mg/kg.

For the compound `O=C(O)Cc1nn(C/C=C/c2cccc(C(F)(F)F)c2F)c(=O)c2ccccc12` [Example B1, (E) -3-[3-[2-fluoro-3-(trifluoromethyl)phenyl]-2-propenyl]-3,4-dihydro-4-oxo-1-phthalazineacetic acid], the IC50 in assay [1] came to 10.2 nM. The ED50 in assay [2] was determined as 4.8 mg/kg.
